Test results from US11524012B1, “Quinolone analogs and their salts, compositions, and method for their use” (Senhwa Biosciences, Inc., priority 2018, dated 2022).

Assay: Stability study of lyophilized Compound I with mannitol (Method A / Method B samples)
Assay type: physicochemical
Method: […] Each 30 mL Type I, clear glass sample vial with 20 mm Freeze Dry Stoppers (Flurotech™ coated) contained 150 mg of Compound I.
At each time point, a vial was removed from the stored condition and reconstituted with 10 mL of D5W and analyzed by HPLC method as discussed in Example 5 at 1 month, 2 months, 3 months, and/or 6 months. In Tables 18-18e, RRT matches the Compounds as shown below.
Sample Preparation—Method A: 10% Mannitol solution was prepared by weighing 200 g±1.0 g of mannitol into glass beaker, adding approximately 1500 mL of WFI (water for injection) to the beaker and stirring until mannitol was dissolved. The mannitol solution was transferred to a 2 L volumetric flask and made to volume with WFI, then poured back to the original beaker to sir and mix further. 1M HCl solution was prepared by adding 16.4 mL of HCl (37%) to a 200 mL volumetric flask containing approximately 100 mL of WFI, adding WFI to make 200 mL in volume, and inverting to mix the prepared solution.
To a tared 2 L Schott bottle containing a magnetic stirrer and wrapped in aluminum foil, 1020 g±1.0 g of the 10% mannitol solution was added. Then, 58.4 g±0.05 g of the 1M HCl solution was added to the 2 L Schott bottle and stirred for approximately 10 minutes. The solution prepared in the 2 L Schott bottle was purged with nitrogen which was continued throughout the manufacturing process. 30.22 g of Compound I (free base) was weighed then added to the 2 L Schott bottle containing 10% mannitol solution and 1 M HCl solution with continual magnetic stirring. The container used to weigh Compound I was rinsed with 3×10 mL of WFI and added to the Schott bottle. After Compound I dissolved (approximately 40 minutes), additional 650 g of WFI was added to the Schott bottle and the solution was stirred for approximately 10 minutes. The pH of the Compound I solution (in Schott bottle) was measured then adjusted to pH 4.5±0.1 using 1 M HCl solution. After each addition of 1 M HCl solution, the solution was stirred for several minutes prior to verifying the pH. Once the pH was adjusted, nitrogen purging was stopped. The pH adjusted Compound I solution was further diluted with WFI to a target weight of 2040 g±1.0 g and stirred.
The final solution (pH adjusted and diluted) was filtered (chain including PVD Fmembrane filter 0.45 μm and 0.22 μm; peristaltic filtration pump by Watson Marlow) in the Bigneat and the bottle containing the filtered solution was sealed. The filtered solution was pumped (Watson Marlow Flexicon PF6-B pump; 100 RPM) into 30 mL Schott Clear Glass vials (10.0 mL filtered solution each). The glass vials were partially stoppered with 20 mm Freeze Dry Stopper Flurotec (Daikyo Seiko) one vial at a time with sterilized utensils inside a fume hood (Envair B101+1.5R) and placed on freeze dryer trays. The freeze dryer trays were transferred into freeze dry chamber and vial probe was positioned (Lyostar II; FTS Kinetics). Lyophilization was performed using the lyophilization cycle listed below. After lyophilization cycle finished, the vials were back filled with N2 and the stopper was placed in situ, wiped down with isopropanol in the fume hood once removed from the freeze dryer, reconciled, then crimped. Seven vials out of 186 sample vials placed under the lyophilization cycle had smashed in the freeze dryer.
Sample Preparation—Method B (dissolved oxygen content ≤1 ppm): 2 L WFI was poured into a Schott bottled and degassed for 30 minutes with N2 until dissolved oxygen content was ≤1 ppm (dissolved oxygen meter and probe; Mettler Toledo). 10% Mannitol solution was prepared by adding […] of mannitol and 1000 mL of degassed WFI to a tared 2 L Schott bottle containing a magnetic stirrer and wrapped in aluminum foil. To the Schott bottle containing mannitol, 15 mL of 2M HCl was added and stirred for approximately 10 minutes. The resulting solution was sparged with N2 while stirring until dissolved oxygen content was ≤1 ppm (approx. 30 min). […]

[1] = Method A sample, 2-8° C./ambient % RH, 1 month
[2] = Method A sample, 2-8° C./ambient % RH, 2 months
[3] = Method A sample, 2-8° C./ambient % RH, 3 months
[4] = Method A sample, 2-8° C./ambient % RH, 6 months
[5] = Method A sample, 2-8° C./ambient % RH, 9 months
[6] = Method A sample, 2-8° C./ambient % RH, 12 months
[7] = Method A sample, 2-8° C./ambient % RH, 18 months
[8] = Method A sample, 2-8° C./ambient % RH, 24 months
[9] = Method A sample, 2-8° C./ambient % RH, 36 months
[10] = Method A sample, 2-8° C./ambient % RH, Initial
[11] = Method B sample, 5° C, 3 months
[12] = Method B sample, 5° C, 6 months

SMILES: Cc1cnc(CNC(=O)c2c(=O)c3ccc(N4CCCN(C)CC4)nc3n3c2sc2ccccc23)cn1 [Compound I, 2-(4-Methyl-[1,4]diazepan-1-yl)-5-oxo-5H-7-thia-1,11b-diaza-benzo[c]fluorene-6-carboxylic acid (5-methyl-pyrazin-2-ylmethyl)-amide]
- Appearance [1]: White powder
- Appearance (Reconstituted Solution) [1]: Clear, colorless
- Compound I by HPLC assay [1]: 101%
- Reconstitution Time [1]: 54 s
- Related Substances RRT 0.83 [1]: RRT 0.83: 0.41%
- Related Substances RRT 0.88 [1]: RRT 0.88: 0.05%
- Related Substances RRT 0.95A [1]: RRT 0.95A: 0.10%
- Related Substances RRT 0.95B [1]: RRT 0.95B: 0.06%
- Related Substances RRT 1.05 [1]: RRT 1.05: 0.18%
- Related Substances RRT 1.08 [1]: RRT 1.08: 0.17%
- Related Substances Total [1]: Total: 1.0%
- Water Content [1]: 0.16%
- pH [1]: 4.56
- Appearance [2]: White powder
- Appearance (Reconstituted Solution) [2]: Clear, colorless
- Compound I by HPLC assay [2]: 101%
- Reconstitution Time [2]: 55 s
- Related Substances RRT 0.88 [2]: RRT 0.88: 0.06%
- Related Substances RRT 0.95B [2]: RRT 0.95B: 0.06%
- Related Substances RRT 1.05 [2]: RRT 1.05: 0.17%
- Related Substances RRT 1.07 [2]: RRT 1.07: 0.15%
- Related Substances Total [2]: Total: 0.4%
- Water Content [2]: 0.20%
- pH [2]: 4.51
- Appearance [3]: White powder
- Appearance (Reconstituted Solution) [3]: Clear, colorless
- Compound I by HPLC assay [3]: 102%
- Reconstitution Time [3]: 41 s
- Related Substances RRT 0.88 [3]: RRT 0.88: 0.05%
- Related Substances RRT 0.95A [3]: RRT 0.95A: 0.05%
- Related Substances RRT 0.95B [3]: RRT 0.95B: 0.06%
- Related Substances RRT 0.96 [3]: RRT 0.96: 0.06%
- Related Substances RRT 1.05 [3]: RRT 1.05: 0.16%
- Related Substances RRT 1.07 [3]: RRT 1.07: 0.20%
- Related Substances Total [3]: Total: 0.6%
- Water Content [3]: 0.16%
- pH [3]: 4.45
- Appearance [4]: White powder
- Appearance (Reconstituted Solution) [4]: Clear, colorless
- Compound I by HPLC assay [4]: 100%
- Related Substances RRT 0.88 [4]: RRT 0.88: 0.09%
- Related Substances RRT 0.89 [4]: RRT 0.89: 0.05%
- Related Substances RRT 0.95B [4]: RRT 0.95B: 0.08%
- Related Substances RRT 0.96 [4]: RRT 0.96: 0.07%
- Related Substances RRT 1.05 [4]: RRT 1.05: 0.17%
- Related Substances RRT 1.07 [4]: RRT 1.07: 0.28%
- Related Substances Total [4]: Total: 0.7%
- Water Content [4]: 0.64%
- pH [4]: 4.25
- Appearance [5]: White powder
- Appearance (Reconstituted Solution) [5]: Clear, colorless
- Compound I by HPLC assay [5]: 100%
- Related Substances RRT 0.88 [5]: RRT 0.88: 0.06%
- Related Substances RRT 0.95B [5]: RRT 0.95B: 0.06%
- Related Substances RRT 0.96 [5]: RRT 0.96: 0.05%
- Related Substances RRT 0.97 [5]: RRT 0.97: 0.07%
- Related Substances RRT 1.05 [5]: RRT 1.05: 0.17%
- Related Substances RRT 1.07 [5]: RRT 1.07: 0.27%
- Related Substances Total [5]: Total: 0.7%
- Water Content [5]: 0.17%
- pH [5]: 4.46
- Appearance [6]: White powder
- Appearance (Reconstituted Solution) [6]: Clear, colorless
- Compound I by HPLC assay [6]: 101%
- Related Substances RRT 0.88 [6]: RRT 0.88: 0.09%
- Related Substances RRT 0.89 [6]: RRT 0.89: 0.07%
- Related Substances RRT 0.95B [6]: RRT 0.95B: 0.05%
- Related Substances RRT 0.96 [6]: RRT 0.96: 0.10%
- Related Substances RRT 0.97 [6]: RRT 0.97: 0.11%
- Related Substances RRT 1.05 [6]: RRT 1.05: 0.17%
- Related Substances RRT 1.07 [6]: RRT 1.07: 0.45%
- Related Substances Total [6]: Total: 1.0%
- Water Content [6]: 0.20%
- pH [6]: 4.47
- Appearance [7]: White powder
- Appearance (Reconstituted Solution) [7]: Clear, colorless
- Compound I by HPLC assay [7]: 98%
- Related Substances RRT 0.88 [7]: RRT 0.88: 0.05%
- Related Substances RRT 0.95B [7]: RRT 0.95B: 0.05%
- Related Substances RRT 0.96 [7]: RRT 0.96: 0.06%
- Related Substances RRT 0.97 [7]: RRT 0.97: 0.07%
- Related Substances RRT 1.04 [7]: RRT 1.04: 0.05%
- Related Substances RRT 1.05 [7]: RRT 1.05: 0.17%
- Related Substances RRT 1.07 [7]: RRT 1.07: 0.20%
- Related Substances Total [7]: Total: 0.6%
- Water Content [7]: 0.24%
- pH [7]: 4.23
- Appearance [8]: White powder
- Appearance (Reconstituted Solution) [8]: Clear, colorless
- Compound I by HPLC assay [8]: 99%
- Related Substances RPT 0.88 [8]: RPT 0.88: 0.06%
- Related Substances RPT 0.95B [8]: RPT 0.95B: 0.05%
- Related Substances RPT 0.96 [8]: RPT 0.96: 0.06%
- Related Substances RPT 0.97 [8]: RPT 0.97: 0.08%
- Related Substances RRT 0.89 [8]: RRT 0.89: 0.05%
- Related Substances RRT 1.05 [8]: RRT 1.05: 0.17%
- Related Substances RRT 1.07 [8]: RRT 1.07: 0.29%
- Related Substances Total [8]: Total: 0.8%
- Water Content [8]: 0.21%
- pH [8]: 4.37
- Appearance [9]: White powder
- Appearance (Reconstituted Solution) [9]: Clear, colorless
- Compound I by HPLC assay [9]: 101%
- Related Substances RRT 0.88 [9]: RRT 0.88: 0.06%
- Related Substances RRT 0.96 [9]: RRT 0.96: 0.06%
- Related Substances RRT 0.97 [9]: RRT 0.97: 0.06%
- Related Substances RRT 1.05 [9]: RRT 1.05: 0.18%
- Related Substances RRT 1.07 [9]: RRT 1.07: 0.24%
- Related Substances Total [9]: Total: 0.6%
- Water Content [9]: 0.28%
- pH [9]: 4.48
- Appearance [10]: White powder
- Appearance (Reconstituted Solution) [10]: Clear, colorless
- Compound I by HPLC assay [10]: 101.5%
- Related Substances RRT 1.05 [10]: RRT 1.05: 0.18%
- Related Substances RRT 1.06 [10]: RRT 1.06: 0.08%
- Related Substances RRT 1.08 [10]: RRT 1.08: 0.06%
- Related Substances Total [10]: Total: 0.3%
- Water Content [10]: 0.14%
- pH [10]: 4.45
- Appearance (Method B sample, 5° C, 1 month): White powder
- Appearance (Reconstituted Solution) (Method B sample, 5° C, 1 month): Clear, colorless
- Compound I by HPLC assay (Method B sample, 5° C, 1 month): 99.5%
- Reconstitution Time (Method B sample, 5° C, 1 month): 60 s
- Related Substances RRT 1.06 (Method B sample, 5° C, 1 month): RRT 1.06: 0.16%
- Related Substances RRT 1.08 (Method B sample, 5° C, 1 month): RRT 1.08: 0.06%
- Related Substances RRT 1.22 (Method B sample, 5° C, 1 month): RRT 1.22: 0.05%
- Related Substances Total (Method B sample, 5° C, 1 month): Total: 0.3%
- Water Content USP<921 Method 1c> (Method B sample, 5° C, 1 month): 1.51%
- pH (USP<791>) (Method B sample, 5° C, 1 month): 4.4
- Appearance [11]: Off-white powder
- Appearance (Reconstituted Solution) [11]: Clear, colorless
- Compound I by HPLC assay [11]: 101.2%
- Related Substances RRT 0.17 [11]: RRT 0.17: 0.05%
- Related Substances RRT 1.04 [11]: RRT 1.04: 0.08%
- Related Substances RRT 1.05 [11]: RRT 1.05: 0.19%
- Related Substances Total [11]: Total: 0.3%
- Water Content USP<921 Method 1c> [11]: 1.19%
- pH (USP<791>) [11]: 4.5
- Appearance [12]: Off-white powder
- Appearance (Reconstituted Solution) [12]: Clear, colorless
- Compound I by HPLC assay [12]: 100.7%
- Related Substances RRT 1.05 [12]: RRT 1.05: 0.13%
- Related Substances Total [12]: Total: 0.1%
- Water Content USP<921 Method 1c> [12]: 1.25%
- pH (USP<791>) [12]: 4.5
- Appearance (Method B sample, 5° C, Initial): White powder
- Appearance (Reconstituted Solution) (Method B sample, 5° C, Initial): Clear, colorless
- Compound I by HPLC assay (Method B sample, 5° C, Initial): 100.2%
- Related Substances RRT 0.96 (Method B sample, 5° C, Initial): RRT 0.96: 0.05%
- Related Substances RRT 1.04 (Method B sample, 5° C, Initial): RRT 1.04: 0.05%
- Related Substances RRT 1.06 (Method B sample, 5° C, Initial): RRT 1.06: 0.17%
- Related Substances RRT 1.08 (Method B sample, 5° C, Initial): RRT 1.08: 0.06%
- Related Substances Total (Method B sample, 5° C, Initial): Total:0.3%
- Water Content USP<921 Method 1c> (Method B sample, 5° C, Initial): 1.12%
